Laboratory results as given in US11572399B2, “Long-acting GIP peptide analogues” (University of Copenhagen, priority 2017, dated 2023).
Like-named read-outs stand apart in the source and are kept apart here. Peptide text beside a SMILES is read from it. * marks the point of attachment. C16 diacid = O=C(O)CCCCCCCCCCCCCCC(=O)*; Palmitoyl = CCCCCCCCCCCCCCCC(=O)*

Key:
[1] = target: T1, human GIP receptor (Homo sapiens, UniProt P48546); test: 125I-human GIP competition binding assay, in the presence and absence of 2% HSA;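 further: nonspecific binding taken as radioligand bound to untransfected cells, IC50 obtained from nonlinear regression fits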
T1 construct: host or cells: COS-7, transient transfection (calcium phosphate), cDNA in pCMV-Script
T1 sequence (P48546 22-466): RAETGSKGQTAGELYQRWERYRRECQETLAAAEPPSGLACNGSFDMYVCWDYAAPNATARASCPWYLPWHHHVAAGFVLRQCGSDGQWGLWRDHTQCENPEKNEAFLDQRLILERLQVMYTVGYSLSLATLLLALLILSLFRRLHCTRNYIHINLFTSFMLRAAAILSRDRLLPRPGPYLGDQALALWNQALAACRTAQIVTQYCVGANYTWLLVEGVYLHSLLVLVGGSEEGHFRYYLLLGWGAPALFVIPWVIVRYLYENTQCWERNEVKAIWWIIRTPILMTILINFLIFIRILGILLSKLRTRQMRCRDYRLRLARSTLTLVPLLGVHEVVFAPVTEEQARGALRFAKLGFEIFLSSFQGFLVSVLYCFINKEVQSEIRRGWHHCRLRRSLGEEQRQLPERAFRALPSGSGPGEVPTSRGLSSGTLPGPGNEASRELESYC

[2] = target: T1, human GIP receptor; test: cAMP accumulation assay, agonism (ligand alone); format: cell-based; conditions: COS-7 cells, Table 1; for Emax: COS-7, intrinsic cAMP activity; for EC50: read-out: cAMP agonism nM (EC50)
[3] = heterologous competition binding, transiently transfected COS-7 cells expressing the human GIP receptor, read-out: Binding
[4] = Table 3b, initial data, read-out: Binding IC50

SMILES	IC50 [1, 3]	Emax [2]	EC50 [2]	further results
CCCCCCCCCCCC(=O)NCCCC[C@H](NC(=O)[C@H](CC(=O)O)NC(=O)[C@H](CCSC)NC(=O)[C@H](C)NC(=O)[C@@H](NC(=O)[C@H](CO)NC(=O)[C@H](Cc1ccc(O)cc1)NC(=O)[C@H](CC(=O)O)NC(=O)[C@H](CO)NC(=O)[C@@H](NC(=O)[C@H](Cc1ccccc1)NC(=O)[C@@H](NC(=O)CNC(=O)[C@@H](N)CCC(=O)O)[C@@H](C)O)[C@@H](C)CC)[C@@H](C)CC)C(=O)N[C@H](C(=O)N[C@@H](CCCNC(=N)N)C(=O)N[C@@H](CCC(N)=O)C(=O)N[C@@H](CCC(N)=O)C(=O)N[C@@H](CC(=O)O)C(=O)N[C@@H](Cc1ccccc1)C(=O)N[C@H](C(=O)N[C@@H](CC(N)=O)C(=O)N[C@@H](Cc1c[nH]c2ccccc12)C(=O)N[C@@H](CC(C)C)C(=O)N[C@@H](CC(C)C)C(=O)N[C@@H](C)C(=O)N[C@@H](CCC(N)=O)C(=O)N[C@@H](CCCNC(=N)N)C(N)=O)C(C)C)[C@@H](C)CC [AT153, [hGIP(3-30)NH2[H18R; K30R]-C12/16]]	316 nM	0%		
CCCCCCCCCCCCCC(=O)NCCCC[C@H](NC(=O)[C@H](CC(=O)O)NC(=O)[C@H](CCSC)NC(=O)[C@H](C)NC(=O)[C@@H](NC(=O)[C@H](CO)NC(=O)[C@H](Cc1ccc(O)cc1)NC(=O)[C@H](CC(=O)O)NC(=O)[C@H](CO)NC(=O)[C@@H](NC(=O)[C@H](Cc1ccccc1)NC(=O)[C@@H](N)[C@@H](C)O)[C@@H](C)CC)[C@@H](C)CC)C(=O)N[C@H](C(=O)N[C@@H](Cc1c[nH]cn1)C(=O)N[C@@H](CCC(N)=O)C(=O)N[C@@H](CCC(N)=O)C(=O)N[C@@H](CC(=O)O)C(=O)N[C@@H](Cc1ccccc1)C(=O)N[C@H](C(=O)N[C@@H](CC(N)=O)C(=O)N[C@@H](Cc1c[nH]c2ccccc12)C(=O)N[C@@H](CC(C)C)C(=O)N[C@@H](CC(C)C)C(=O)N[C@@H](C)C(=O)N[C@@H](CCC(N)=O)C(=O)N[C@@H](CCCCN)C(N)=O)C(C)C)[C@@H](C)CC [AT122, [hGIP(5-30)NH2—C14/16]]		0%		Fold change HSA (2%)/Casein (0.1%) ([1]; IC50 (plus HSA)/IC50 (minus HSA)): 4.9; IC50 ([1]; binding in 0.1% casein (absence of HSA), log value, read-out: logIC50 0.1% casein (converted)): 1260 nM
CCCCCCCCCCCC(=O)N[C@@H](CCC(=O)O)C(=O)NCC(=O)N[C@H](C(=O)N[C@@H](Cc1ccccc1)C(=O)N[C@H](C(=O)N[C@@H](CO)C(=O)N[C@@H](CC(=O)O)C(=O)N[C@@H](Cc1ccc(O)cc1)C(=O)N[C@@H](CO)C(=O)N[C@H](C(=O)N[C@@H](C)C(=O)N[C@@H](CCSC)C(=O)N[C@@H](CC(=O)O)C(=O)N[C@@H](CCCCN)C(=O)N[C@H](C(=O)N[C@@H](Cc1c[nH]cn1)C(=O)N[C@@H](CCC(N)=O)C(=O)N[C@@H](CCC(N)=O)C(=O)N[C@@H](CC(=O)O)C(=O)N[C@@H](Cc1ccccc1)C(=O)N[C@H](C(=O)N[C@@H](CC(N)=O)C(=O)N[C@@H](Cc1c[nH]c2ccccc12)C(=O)N[C@@H](CC(C)C)C(=O)N[C@@H](CC(C)C)C(=O)N[C@@H](C)C(=O)N[C@@H](CCC(N)=O)C(=O)N[C@@H](CCCCN)C(N)=O)C(C)C)[C@@H](C)CC)[C@@H](C)CC)[C@@H](C)CC)[C@@H](C)O [AT148, [hGIP(3-30)NH2—C12/3]]	24 nM	43%	13 nM	
CCCCCCCCCCCC(=O)N[C@@H](CCC(=O)O)C(=O)NCC(=O)N[C@H](C(=O)N[C@@H](Cc1ccccc1)C(=O)N[C@H](C(=O)N[C@@H](CO)C(=O)N[C@@H](CC(=O)O)C(=O)N[C@@H](Cc1ccc(O)cc1)C(=O)N[C@@H](CO)C(=O)N[C@H](C(=O)N[C@@H](C)C(=O)N[C@@H](CCSC)C(=O)N[C@@H](CC(=O)O)C(=O)N[C@@H](CCCCN)C(=O)N[C@H](C(=O)N[C@@H](Cc1c[nH]cn1)C(=O)N[C@@H](CCC(N)=O)C(=O)N[C@@H](CCC(N)=O)C(=O)N[C@@H](CC(=O)O)C(=O)N[C@@H](Cc1ccccc1)C(=O)N[C@H](C(=O)N[C@@H](CC(N)=O)C(=O)N[C@@H](Cc1c[nH]c2ccccc12)C(=O)N[C@@H](CC(C)C)C(=O)N[C@@H](CC(C)C)C(=O)N[C@@H](C)C(=O)N[C@@H](CCC(N)=O)C(=O)N[C@@H](CCCCN)C(N)=O)C(C)C)[C@@H](C)CC)[C@@H](C)CC)[C@@H](C)CC)[C@@H](C)O [AT101, [hGIP(3-30)NH2—C12/3]]	9.9 nM		0.7 nM	IC50 [1, 4]: 9.9 nM; Binding fold (paired) ([1]; fold decrease in affinity compared to GIP(3-30)NH2, Table 3b): 0.7 fold; cAMP agonism Emax ([2]; intrinsic cAMP activity): 62%
CCCCCCCCCCCCCCCC(=O)NCCCC[C@H](NC(=O)[C@H](CC(=O)O)NC(=O)[C@H](CCSC)NC(=O)[C@H](C)NC(=O)[C@@H](NC(=O)[C@H](CO)NC(=O)[C@H](Cc1ccc(O)cc1)NC(=O)[C@H](CC(=O)O)NC(=O)[C@H](CO)NC(=O)[C@@H](NC(=O)[C@H](Cc1ccccc1)NC(=O)[C@@H](NC(=O)CNC(=O)[C@@H](N)CCC(=O)O)[C@@H](C)O)[C@@H](C)CC)[C@@H](C)CC)C(=O)N[C@H](C(=O)N[C@@H](CCCCN)C(=O)N[C@@H](CCC(N)=O)C(=O)N[C@@H](CCC(N)=O)C(=O)N[C@@H](CC(=O)O)C(=O)N[C@@H](Cc1ccccc1)C(=O)N[C@H](C(=O)N[C@@H](CC(N)=O)C(=O)N[C@@H](Cc1c[nH]c2ccccc12)C(=O)N[C@@H](CC(C)C)C(=O)N[C@@H](CC(C)C)C(=O)N[C@@H](C)C(=O)N[C@@H](CCC(N)=O)C(=O)N[C@@H](CCCCN)C(N)=O)C(C)C)[C@@H](C)CC [AT163, [hGIP(3-30)NH2[H18K]-C16/16]] (H-EGTFISDYSIAMDK(Palmitoyl)IKQQDFVNWLLAQK-NH2; N-terminus assumed)	205 nM	0%		
CCCCCCCCCCCCCCCC(=O)NCCCC[C@H](NC(=O)[C@H](CC(=O)O)NC(=O)[C@H](CCSC)NC(=O)[C@H](C)NC(=O)[C@@H](NC(=O)[C@H](CO)NC(=O)[C@H](Cc1ccc(O)cc1)NC(=O)[C@H](CC(=O)O)NC(=O)[C@H](CO)NC(=O)[C@@H](NC(=O)[C@H](Cc1ccccc1)NC(=O)[C@@H](NC(=O)CNC(=O)[C@@H](N)CCC(=O)O)[C@@H](C)O)[C@@H](C)CC)[C@@H](C)CC)C(=O)N[C@H](C(=O)N[C@@H](Cc1c[nH]cn1)C(=O)N[C@@H](CCC(N)=O)C(=O)N[C@@H](CCC(N)=O)C(=O)N[C@@H](CC(=O)O)C(=O)N[C@@H](Cc1ccccc1)C(=O)N[C@H](C(=O)N[C@@H](CC(N)=O)C(=O)N[C@@H](Cc1c[nH]c2ccccc12)C(=O)N[C@@H](CC(C)C)C(=O)N[C@@H](CC(C)C)C(=O)N[C@@H](C)C(=O)N[C@@H](CCC(N)=O)C(=O)N[C@@H](CCCCN)C(N)=O)C(C)C)[C@@H](C)CC [AT105, [hGIP(3-30)NH2—C16/16]]	522 nM	34%		IC50 [1, 4]: 522 nM
CCCCCCCCCCCCCCCCCC(=O)NCCCC[C@H](NC(=O)[C@H](CCC(N)=O)NC(=O)[C@H](C)NC(=O)[C@H](CC(C)C)NC(=O)[C@H](CC(C)C)NC(=O)[C@H](Cc1c[nH]c2ccccc12)NC(=O)[C@H](CC(N)=O)NC(=O)[C@@H](NC(=O)[C@H](Cc1ccccc1)NC(=O)[C@H](CC(=O)O)NC(=O)[C@H](CCC(N)=O)NC(=O)[C@H](CCC(N)=O)NC(=O)[C@H](Cc1c[nH]cn1)NC(=O)[C@@H](NC(=O)[C@H](CCCCN)NC(=O)[C@H](CC(=O)O)NC(=O)[C@H](CCSC)NC(=O)[C@H](C)NC(=O)[C@@H](NC(=O)[C@H](CO)NC(=O)[C@H](Cc1ccc(O)cc1)NC(=O)[C@H](CC(=O)O)NC(=O)[C@H](CO)NC(=O)[C@@H](NC(=O)[C@H](Cc1ccccc1)NC(=O)[C@@H](N)[C@@H](C)O)[C@@H](C)CC)[C@@H](C)CC)[C@@H](C)CC)C(C)C)C(N)=O [AT129, [hGIP(5-30)NH2—C18/30]]		0%		IC50 ([1]; heterologous competition binding, transiently transfected COS-7 cells expressing the human GIP receptor, log value of the nM column, read-out: Binding log (converted)): 126000 nM
CC[C@H](C)[C@H](NC(=O)[C@H](CO)NC(=O)[C@H](Cc1ccc(O)cc1)NC(=O)[C@H](CC(=O)O)NC(=O)[C@H](CO)NC(=O)[C@@H](NC(=O)[C@H](Cc1ccccc1)NC(=O)[C@@H](NC(=O)CNC(=O)[C@@H](N)CCC(=O)O)[C@@H](C)O)[C@@H](C)CC)C(=O)N[C@@H](C)C(=O)N[C@@H](CCSC)C(=O)N[C@@H](CC(=O)O)C(=O)N[C@@H](CCCCN)C(=O)N[C@H](C(=O)N[C@@H](Cc1c[nH]cn1)C(=O)N[C@@H](CCC(N)=O)C(=O)N[C@@H](CCC(N)=O)C(=O)N[C@@H](CC(=O)O)C(=O)N[C@@H](Cc1ccccc1)C(=O)N[C@H](C(=O)N[C@@H](CC(N)=O)C(=O)N[C@@H](Cc1c[nH]c2ccccc12)C(=O)N[C@@H](CCCCNC(=O)CCCCCCCCCCCCCCC(=O)O)C(=O)N[C@@H](CC(C)C)C(=O)N[C@@H](C)C(=O)N[C@@H](CCC(N)=O)C(=O)N[C@@H](CCCCN)C(N)=O)C(C)C)[C@@H](C)CC [AT315, [hGIP(3-30)NH2[L26K]-C16diacid/26]] (H-EGTFISDYSIAMDKIHQQDFVNWK(C16 diacid)LAQK-NH2; N-terminus assumed)		5.9%	183 nM	
